Like-named read-outs stand apart in the source and are kept apart here.
Columns and labels:
[1] = biological target: EGFR (Homo sapiens (Human), UniProt P00533); test: ErbB enzyme assay (CisBio HTRF KinEASE-TK), Assay 3; format: biochemical
Summary of the method: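 First, enzyme was reacted with compound, 1 mM ATP and 250 nM biotinylated tyrosine-kinase peptide for 30 min at 22 °C at pH 7.4. Next, streptavidin-XL665 and cryptate antibody were added for 1 h. Finally, HTRF ratios were converted to POC and fitted to yield IC50.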

[2] = biological target: ErbB2 WT (Homo sapiens (Human), UniProt P04626); test: ErbB enzyme assay (CisBio HTRF KinEASE-TK), Assay 2; format: biochemical
Summary of the method: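 Readout is HTRF KinEASE-TK, using Sa-XL665 and cryptate antibody for 1 h at 22 °C, as percent of control between DMSO-only (100) and pre-quenched (0) reactions. The kinase reaction runs 30 min at 22 °C with 1 mM ATP and 250 nM biotinylated TK substrate, in HEPES pH 7.4 with MgCl2 and 2% DMSO.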

[3] = biological target: ErbB2 with Exon 20 YVMA insertion (HER2-YVMA) (Homo sapiens (Human), UniProt P04626, INS775YVMA); test: Cellular phosphorylation assay, constitutive ErbB2 phosphorylation (Y1196) in engineered NIH 3T3 cells, Assay 4; format: cell-based
Sequence of ErbB2 with Exon 20 YVMA insertion (HER2-YVMA) (P04626 other isoform, or with tags, fused parts or gaps ins YVMA behind 775): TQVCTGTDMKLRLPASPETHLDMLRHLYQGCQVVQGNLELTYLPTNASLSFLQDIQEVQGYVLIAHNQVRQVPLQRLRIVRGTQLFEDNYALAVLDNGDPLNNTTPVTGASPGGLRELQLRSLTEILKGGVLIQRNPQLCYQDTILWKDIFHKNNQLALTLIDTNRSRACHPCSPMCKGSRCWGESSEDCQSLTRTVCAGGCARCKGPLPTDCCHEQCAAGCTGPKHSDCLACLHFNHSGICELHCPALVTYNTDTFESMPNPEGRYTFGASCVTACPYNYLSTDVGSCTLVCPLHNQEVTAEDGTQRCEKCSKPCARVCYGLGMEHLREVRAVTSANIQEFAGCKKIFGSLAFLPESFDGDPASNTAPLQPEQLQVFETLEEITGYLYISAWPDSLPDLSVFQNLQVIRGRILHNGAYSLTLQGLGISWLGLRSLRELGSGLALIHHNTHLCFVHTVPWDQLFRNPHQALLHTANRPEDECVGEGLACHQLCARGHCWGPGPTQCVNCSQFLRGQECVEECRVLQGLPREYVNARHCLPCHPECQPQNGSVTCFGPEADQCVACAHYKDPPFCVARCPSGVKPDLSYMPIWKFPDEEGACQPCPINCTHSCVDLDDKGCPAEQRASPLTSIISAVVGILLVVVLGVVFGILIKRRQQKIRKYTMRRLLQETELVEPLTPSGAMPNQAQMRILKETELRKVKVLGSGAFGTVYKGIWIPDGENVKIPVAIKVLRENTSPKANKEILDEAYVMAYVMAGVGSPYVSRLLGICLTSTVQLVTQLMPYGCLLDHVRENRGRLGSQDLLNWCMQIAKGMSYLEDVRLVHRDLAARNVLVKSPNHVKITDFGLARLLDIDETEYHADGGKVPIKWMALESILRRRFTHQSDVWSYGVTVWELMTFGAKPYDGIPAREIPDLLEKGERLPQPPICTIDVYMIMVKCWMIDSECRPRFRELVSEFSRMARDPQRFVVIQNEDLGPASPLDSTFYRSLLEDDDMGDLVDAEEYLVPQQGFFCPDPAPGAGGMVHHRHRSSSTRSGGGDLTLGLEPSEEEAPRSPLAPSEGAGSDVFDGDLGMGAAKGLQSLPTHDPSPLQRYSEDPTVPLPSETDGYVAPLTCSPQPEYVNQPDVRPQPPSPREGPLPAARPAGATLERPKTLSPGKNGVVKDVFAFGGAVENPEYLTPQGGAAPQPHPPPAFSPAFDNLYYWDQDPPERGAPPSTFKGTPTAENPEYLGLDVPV
Summary of the method: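 In-cell Western in NIH 3T3 cells carrying ErbB2 exon 20 YVMA insertion, with no ligand stimulation. One hour compound exposure at 37 °C before fixation and anti-pY1196 plus GAPDH staining with dual-wavelength fluorescence. IC50 derived after GAPDH normalization.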

[4] = biological target: EGFR wild type (EGFR WT) (Homo sapiens (Human), UniProt P00533); test: Cellular phosphorylation assay, EGF-stimulated EGFR phosphorylation in engineered NIH 3T3 cells, Phospho-EGFR DuoSet IC ELISA, Assay 5; format: cell-based
Sequence of EGFR wild type (EGFR WT) (P00533 25-1210): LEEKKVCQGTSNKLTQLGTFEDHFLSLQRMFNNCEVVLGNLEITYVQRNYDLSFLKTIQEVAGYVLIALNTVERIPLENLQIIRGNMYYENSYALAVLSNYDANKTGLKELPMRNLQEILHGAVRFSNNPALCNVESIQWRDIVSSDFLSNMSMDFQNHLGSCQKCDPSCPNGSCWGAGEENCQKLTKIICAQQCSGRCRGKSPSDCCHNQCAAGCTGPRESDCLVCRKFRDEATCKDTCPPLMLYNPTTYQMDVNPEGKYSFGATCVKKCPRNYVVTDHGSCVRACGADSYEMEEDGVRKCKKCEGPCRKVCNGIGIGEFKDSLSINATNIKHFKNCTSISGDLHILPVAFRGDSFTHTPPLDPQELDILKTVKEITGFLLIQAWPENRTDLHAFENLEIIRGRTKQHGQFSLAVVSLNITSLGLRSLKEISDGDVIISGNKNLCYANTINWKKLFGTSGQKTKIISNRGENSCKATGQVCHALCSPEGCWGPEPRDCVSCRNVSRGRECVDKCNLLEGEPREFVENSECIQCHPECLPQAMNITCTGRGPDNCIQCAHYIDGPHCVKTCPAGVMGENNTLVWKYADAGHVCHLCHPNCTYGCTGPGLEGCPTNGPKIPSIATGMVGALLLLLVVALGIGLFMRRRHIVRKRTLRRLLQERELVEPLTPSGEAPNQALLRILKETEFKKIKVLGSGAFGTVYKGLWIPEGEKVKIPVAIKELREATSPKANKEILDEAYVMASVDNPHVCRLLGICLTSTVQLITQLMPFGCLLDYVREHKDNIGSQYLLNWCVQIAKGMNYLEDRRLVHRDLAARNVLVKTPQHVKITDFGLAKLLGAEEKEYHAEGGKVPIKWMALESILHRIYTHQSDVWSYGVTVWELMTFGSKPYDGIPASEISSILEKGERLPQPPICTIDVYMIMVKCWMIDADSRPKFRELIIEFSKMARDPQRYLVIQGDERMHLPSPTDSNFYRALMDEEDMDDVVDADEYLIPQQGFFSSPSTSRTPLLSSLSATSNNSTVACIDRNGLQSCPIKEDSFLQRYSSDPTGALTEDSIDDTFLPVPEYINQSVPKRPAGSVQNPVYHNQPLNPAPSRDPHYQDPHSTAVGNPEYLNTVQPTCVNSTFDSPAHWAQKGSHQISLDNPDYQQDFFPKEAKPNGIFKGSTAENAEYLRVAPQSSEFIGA
Procedure: NIH 3T3 cells were engineered to express EGFR wild type (EGFR WT; Assay 5, no footnote) with constructs obtained from GenScript and grown in DMEM supplemented with 10% fetal bovine serum and 15 μg/ml blasticidin. Cells were plated in 96-well plates at 20,000 cells/well and allowed to attach overnight at 37° C./5% CO2. Serially diluted compounds were added to the plates for 1 hour at 37° C./5% CO2. EGFR WT cells were stimulated with 100 ng/ml rEGF for an additional 10 minutes at 37° C./5% CO2. After compound incubation, medium was removed from the cells, which were then lysed in 100 μL/well lysis buffer according to the manufacturer's protocol (R&D Systems, DYC1095, Human Phospho-EGFR DuoSet IC ELISA). Same protocol was followed to determine the total levels of phospho-EGFR by measuring the optical density of each well using a VersaMax microplate reader. Curves were then generated and IC50 values calculated.

[5] = biological target: ErbB2 insYVMA (HER2-YVMA, SEQ ID NO: 2) (Homo sapiens, UniProt P04626, INS775YVMA/P1170A); test: biochemical; conditions: ErbB2 insYVMA enzyme assay
Sequence of ErbB2 insYVMA (HER2-YVMA, SEQ ID NO: 2) (P04626 with tags, fused parts or gaps INS775YVMA/P1170A limits assumed): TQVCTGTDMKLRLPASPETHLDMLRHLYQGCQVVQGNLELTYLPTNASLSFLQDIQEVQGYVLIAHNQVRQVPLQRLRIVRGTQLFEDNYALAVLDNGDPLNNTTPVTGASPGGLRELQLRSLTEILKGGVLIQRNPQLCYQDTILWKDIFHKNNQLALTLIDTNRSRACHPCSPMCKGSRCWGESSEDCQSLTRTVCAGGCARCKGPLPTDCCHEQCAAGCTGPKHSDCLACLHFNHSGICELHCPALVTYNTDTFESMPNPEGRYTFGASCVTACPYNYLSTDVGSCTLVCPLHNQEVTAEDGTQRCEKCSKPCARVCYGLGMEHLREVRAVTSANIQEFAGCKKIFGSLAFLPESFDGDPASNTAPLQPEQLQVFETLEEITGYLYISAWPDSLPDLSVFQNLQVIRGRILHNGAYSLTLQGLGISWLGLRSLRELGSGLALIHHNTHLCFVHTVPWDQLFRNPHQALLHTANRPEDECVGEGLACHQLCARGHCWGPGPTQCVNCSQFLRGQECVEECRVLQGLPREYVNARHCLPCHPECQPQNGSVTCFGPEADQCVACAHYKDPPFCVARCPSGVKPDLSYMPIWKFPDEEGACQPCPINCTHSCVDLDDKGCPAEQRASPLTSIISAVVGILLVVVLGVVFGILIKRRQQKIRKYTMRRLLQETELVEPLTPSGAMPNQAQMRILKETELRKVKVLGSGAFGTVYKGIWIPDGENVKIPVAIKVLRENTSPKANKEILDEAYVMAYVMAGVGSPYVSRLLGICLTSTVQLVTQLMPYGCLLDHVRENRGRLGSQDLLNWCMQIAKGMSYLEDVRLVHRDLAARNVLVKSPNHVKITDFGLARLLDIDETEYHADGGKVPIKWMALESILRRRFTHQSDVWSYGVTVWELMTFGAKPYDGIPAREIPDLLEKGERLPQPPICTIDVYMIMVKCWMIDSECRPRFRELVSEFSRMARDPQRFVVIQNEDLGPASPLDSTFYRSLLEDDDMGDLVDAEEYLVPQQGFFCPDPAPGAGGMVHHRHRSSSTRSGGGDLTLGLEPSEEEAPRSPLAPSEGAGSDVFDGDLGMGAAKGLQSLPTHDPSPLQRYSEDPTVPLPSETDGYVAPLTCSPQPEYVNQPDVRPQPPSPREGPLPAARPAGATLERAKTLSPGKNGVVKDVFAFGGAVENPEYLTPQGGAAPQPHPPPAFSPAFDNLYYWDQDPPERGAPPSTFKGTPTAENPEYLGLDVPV

Sequence of EGFR (P00533 25-1210): as the sequence (P00533 25-1210) above

SMILES	IC50 [1]	IC50 [2]	IC50 [3]	IC50 [4]	IC50 ([5]; read-out: Assay 1 IC50)	IC50 ([5]; Assay 1 IC50 (nM))
Cc1c(Oc2ccn3ncnc3c2)ccc(Nc2ncnc3cnc(N(C)CC(F)F)nc23)c1F [Example 317]	≥ 10000 nM	101 nM	402 nM	≥ 5000 nM	18.1 nM	
Cc1cc(Nc2ncnc3cnc(O[C@@H]4CN(C)C[C@@H]4F)nc23)ccc1Oc1ccc2c(c1)ncn2C [Example 87, 6-(((3R,4S)-4-fluoro-1-methylpyrrolidin-3-yl)oxy)-N-(3-methyl-4-((1-methyl-1H-benzo[d]imidazol-5-yl)oxy)phenyl)pyrimido[5,4-d]pyrimidin-4-amine]	≥ 10000 nM	346 nM	95.1 nM	≥ 5000 nM	69.5 nM	
Cc1cc(Nc2ncnc3cnc(O[C@H]4CNCC[C@H]4F)nc23)ccc1Oc1ccc2c(c1)ncn2C [Example 290]	≥ 10000 nM	601 nM	83.5 nM	≥ 5000 nM	92.5 nM	
Cn1cnc2cc(Oc3ccc(Nc4ncnc5cnc(N6CC[C@H](C#N)C6)nc45)cc3Cl)ccc21 [Example 152, (S)-1-(8-((3-chloro-4-((1-methyl-1H-benzo[d]imidazol-5-yl)oxy)phenyl)amino)pyrimido[5,4-d]pyrimidin-2-yl)pyrrolidine-3-carbonitrile 2,2,2-trifluoroacetate]	≥ 10000 nM	78.7 nM	31.9 nM	≥ 5000 nM		36.7 nM
Cc1cc(Nc2ncnc3cnc(N4CCCS4(=O)=O)nc23)ccc1Oc1ccc2c(c1)ncn2C [Example 139, 2-(8-((3-methyl-4-((1-methyl-1H-benzo[d]imidazol-5-yl)oxy)phenyl)amino)pyrimido[5,4-d]pyrimidin-2-yl)isothiazolidine 1,1-dioxide]	1570 nM	12.6 nM	6.3 nM	≥ 5000 nM	9.6 nM	
Cn1cnc2cc(Oc3ccc(Nc4ncnc5cnc(N6CCC(C)(O)CC6)nc45)cc3Cl)ccc21 [Example 480]	5040 nM	23.3 nM	4.4 nM	≥ 5000 nM	18.1 nM	
Cc1cc(Nc2ncnc3cnc(N4CC[C@]45CCOC5)nc23)ccc1Oc1ccn2ncnc2c1 [Example 374]	1180 nM	14.2 nM	216 nM	≥ 5000 nM	14.3 nM	
Clc1cc(Nc2ncnc3cnc(N4CCOC5(CC5)C4)nc23)ccc1Oc1ccn2ncnc2c1 [Example 398]	7770 nM	36.5 nM	70.5 nM	≥ 5000 nM	22.1 nM	
CN(CCC(C)(C)O)c1ncc2ncnc(Nc3ccc(Oc4ccc5c(c4)ncn5C)c(Cl)c3)c2n1 [Example 479]	2210 nM	24.4 nM	12.9 nM	≥ 5000 nM	26.5 nM	
O[C@H]1C[C@H]2C[C@@H]1CN2c1ncc2ncnc(Nc3ccc(Oc4ccn5ncnc5c4)c(Cl)c3)c2n1 [Example 335]	4110 nM	24.1 nM	143 nM	≥ 5000 nM	15.7 nM	
Cc1cc(Nc2ncnc3cnc(N4CCC[C@@](C)(O)C4)nc23)ccc1Oc1ccn2ncnc2c1 [Example 414]	1410 nM	23.7 nM	140 nM	≥ 5000 nM	25.2 nM	
FC(F)(F)[C@H]1CN(c2ncc3ncnc(Nc4ccc(Oc5ccn6ncnc6c5)c(Cl)c4)c3n2)CCN1 [Example 429]	3950 nM	39.6 nM	46.6 nM	≥ 5000 nM	11.2 nM	
Cc1ncc(-c2ncc3ncnc(Nc4ccc(Oc5ccc6c(c5)ncn6C)c(C)c4)c3n2)s1 [Example 42, N-(3-methyl-4-((1-methyl-1H-benzo[d]imidazol-5-yl)oxy)phenyl)-6-(2-methylthiazol-5-yl)pyrimido[5,4-d]pyrimidin-4-amine]	≥ 10000 nM	176 nM	16.8 nM	≥ 5000 nM	58.2 nM	
Cc1c(Oc2ccc3c(c2)ncn3C)ccc(Nc2ncnc3cnc(N4C[C@H]5C[C@@H]4CO5)nc23)c1F [Example 457]	8240 nM	83.9 nM	50.6 nM	≥ 5000 nM	25.1 nM	
Cc1cc(Nc2ncnc3cnc(N4CC[C@H](C(F)F)C4)nc23)ccc1Oc1ccn2ncnc2c1 [Example 359]	≥ 10000 nM	32.7 nM	278 nM	≥ 5000 nM	11.7 nM	
COC[C@@H]1CCN1c1ncc2ncnc(Nc3ccc(Oc4ccn5ncnc5c4)c(Cl)c3)c2n1 [Example 328]	≥ 10000 nM	105 nM	306 nM	≥ 5000 nM	17.9 nM	
CC1(C)CN(c2ncc3ncnc(Nc4ccc(Oc5ccn6ncnc6c5)c(Cl)c4)c3n2)C[C@H]1O [Example 339]	5240 nM	71.4 nM	587 nM	≥ 5000 nM	47.2 nM	
Cc1cc(Nc2ncnc3cnc(N4CCC(C)(O)CC4)nc23)c(F)cc1Oc1ccc2c(c1)ncn2C [Example 215, 1-(8-((2-fluoro-5-methyl-4-((1-methyl-1H-benzo[d]imidazol-5-yl)oxy)phenyl)amino)pyrimido[5,4-d]pyrimidin-2-yl)-4-methylpiperidin-4-ol]	≥ 10000 nM	120 nM	37.8 nM	≥ 5000 nM	28.8 nM	
CN1CCN(c2ncc3ncnc(Nc4ccc(Oc5ccc6c(c5)ncn6C)c(Cl)c4)c3n2)CC1 [Example 143, N-(3-chloro-4-((1-methyl-1H-benzo[d]imidazol-5-yl)oxy)phenyl)-6-(4-methylpiperazin-1-yl)pyrimido[5,4-d]pyrimidin-4-amine 2,2,2-trifluoroacetate]	7410 nM	50.7 nM	28.2 nM	≥ 5000 nM		35.1 nM
COC[C@H](C)Nc1ncc2ncnc(Nc3ccc(Oc4ccc5c(c4)ncn5C)c(C)c3)c2n1 [Example 62, (S)—N2-(1-methoxypropan-2-yl)-N8-(3-methyl-4-((1-methyl-1H-benzo[d]imidazol-5-yl)oxy)phenyl)pyrimido[5,4-d]pyrimidine-2,8-diamine]	≥ 10000 nM	112 nM	27.1 nM	≥ 5000 nM	39.8 nM	
Cc1cc(Nc2ncnc3cnc(N4CCN[C@@H](C)C4)nc23)ccc1Oc1ccc2c(c1)ncn2C [Example 278]	9550 nM	42.9 nM	13.5 nM	≥ 5000 nM	22 nM	
CON1CCN(c2ncc3ncnc(Nc4ccc(Oc5ccn6ncnc6c5)c(C)c4F)c3n2)CC1 [Example 95, N-(4-([1,2,4]triazolo[1,5-a]pyridin-7-yloxy)-2-fluoro-3-methylphenyl)-6-(4-methoxypiperazin-1-yl)pyrimido[5,4-d]pyrimidin-4-amine]	≥ 10000 nM	95.1 nM	179 nM	≥ 5000 nM	25.2 nM	
C[C@H]1CN(c2ncc3ncnc(Nc4ccc(Oc5ccn6ncnc6c5)c(Cl)c4)c3n2)C[C@@H]1O [Example 340]	4000 nM	41.2 nM	165 nM	≥ 5000 nM	16.8 nM	
Cc1cc(Nc2ncnc3cnc(N4CC5(C4)CC(O)(C(F)(F)F)C5)nc23)ccc1Oc1ccc2c(c1)ncn2C [Example 487]	≥ 10000 nM	45.7 nM	49.1 nM	≥ 5000 nM	62.1 nM	

— patent US11834453B2, “Substituted pyrimido[5,4-d]pyrimidines as HER2 inhibitors” (Array BioPharma Inc., priority 2020, dated 2023)
